In brackets after ≈: the same amount, converted by molar mass. Read-outs that look alike come from different tables or passages of the source.
Key:
[1] = tested on: A. baumannii strain 1403; type: cell-based, Acinetobacter baumannii; conditions: serial passage, 8 days, start 0.5× MIC
Method: An important attribute of novel antibiotics is the ability to fend off the development of resistance towards their effects. To assess this capacity, A. baumannii strains were incubated overnight with 0.5× MIC of each of the frontrunners. The next day cells were washed and used to inoculate fresh media that contained a two-fold increase in drug. This was repeated for a total of 8 days, alongside sulfamethoxazole (SMX) and trimethoprim (TMP) controls, both of which target the same pathway as our lead agents (FIG. 2).
In order to test potential resistance towards the quinazolines, a serial passage assay was performed alongside control compounds (Sulfamethoxazole and Trimethoprim), as described by us previously.^24 A. baumannii strain 1403 was grown overnight in LB media at 37° C. The next day cultures were diluted 1:100 in fresh media and seeded into a 96-well plate. Lead quinazolines or control agents were added to respective wells at half MIC concentrations. […] These were then grown overnight, and the procedure repeated for a total of eight days.

[2] = tested on: A. baumannii 1651; experiment: MIC assay, strain 1651; type: cell-based, Acinetobacter baumannii; conditions: Acinetobacter baumannii, strain 1651
Method: (§1) MIC and MBC assays were performed in this study as documented by us previously.^17,23,24,25 The A. baumannii strains used are detailed in Table 7.

[3] = tested on: A. baumannii 1646; experiment: MIC assay, strain 1646; type: cell-based, Acinetobacter baumannii; conditions: Acinetobacter baumannii
Method: as §1

[4] = tested on: A. baumannii 1403; experiment: MIC assay, strain 1403; type: cell-based, Acinetobacter baumannii; conditions: Acinetobacter baumannii, strain 1403
Method: as §1

[5] = tested on: A. baumannii 1649; experiment: MIC assay, strain 1649; type: cell-based, Acinetobacter baumannii; conditions: Acinetobacter baumannii, strain 1649
Method: as §1

[6] = tested on: A. baumannii 1650; experiment: MIC assay, strain 1650; type: cell-based, Acinetobacter baumannii; conditions: Acinetobacter baumannii, strain 1650
Method: as §1

[7] = tested on: human HepG2 cells; type: cell-based
Method: Cytotoxicity assays were performed using human HepG2 cells (human liver epithelial with hepatocellular carcinoma), as described by us previously.^17,24 Cells were cultured in Dulbecco's modified eagle medium (DMEM), supplemented with 10% fetal bovine serum and 1% penicillin-streptomycin for 3 days at 37° C. and 5% CO2. Cells were then diluted to 1×10^5 ml^−1 using fresh DMEM and added to 96 well tissue culture plates at a volume of 100 μL. Plates were incubated for 24 hours at 37° C. and 5% CO2, allowing the cells to adhere to the plastic. […] Plates were then incubated for 48 hours at 37° C. and 5% CO2. After 48 hours the DMEM was removed and 100 μL of new media was added containing MTT (3-(4, 5-dimethylthiazol-2-yl)-2, 5-diphenyltetrazolium bromide), followed by incubation for four hours at 37° C. and 5% CO2. […] Lead compounds were solvated in 100% DMSO for these studies, which served as the negative control. LD50 values were determined for each compound by comparison to vehicle only controls.

[8] = tested on: A. baumannii 1652; experiment: MIC assay, strain 1652; type: cell-based, Acinetobacter baumannii; conditions: Acinetobacter baumannii, strain 1652
Method: as §1

[9] = tested on: A. baumannii; experiment: MIC assay, A. baumannii isolates (strain not given); type: cell-based, Acinetobacter baumannii; conditions: Acinetobacter baumannii; most isolates besides the 1652 strain; read-out: MIC against most isolates
Method: as §1

[10] = tested on: A. baumannii 1651 biofilm; experiment: biofilm eradication determination assay, strain 1651; type: cell-based, Acinetobacter baumannii; conditions: 90% biofilm eradication, Table 8
Method: (§2) These assays were performed as described by us previously,^26,24 as follows. Each of the A. baumannii strains were grown overnight in Mueller Hinton Broth (MHB). The next day these were used to seed fresh MHB to an OD600 of 0.5, with 150 μL then added to the wells of a 96 well plate and grown for 24 hours at 37° C. After 24 hours, the planktonic bacteria were carefully removed and fresh MHB was added with increasing concentrations of lead quinazolines. After incubation at 37° C. for 24 hours, planktonic cells were removed and biofilms were washed three times with phosphate buffered saline (PBS). Biofilms were then resuspended in PBS and plated for cell viability on tryptic soy agar. Biofilm recovery was assessed compared to no drug controls, and determined as percent eradication. This was used to determine MBEC90 values (Minimal Biofilm Eradication Concentration), where the viability of cells within the biofilm was reduced by 90%.

[11] = tested on: A. baumannii 1652 biofilm; experiment: biofilm eradication determination assay, strain 1652; type: cell-based, Acinetobacter baumannii; conditions: 90% biofilm eradication, Table 8
Method: as §2

[12] = tested on: A. baumannii 1649 biofilm; experiment: biofilm eradication determination assay, strain 1649; type: cell-based, Acinetobacter baumannii; conditions: 90% biofilm eradication, Table 8
Method: as §2

[13] = tested on: A. baumannii 1646 biofilm; experiment: biofilm eradication determination assay, strain 1646; type: cell-based, Acinetobacter baumannii
Method: as §2

[14] = tested on: A. baumannii 1650; experiment: minimal bactericidal concentration (MBC) assay, strain 1650; type: cell-based; conditions: Acinetobacter baumannii, Table 8, read-out: MBC90 1650
Source text: (§3) Lead quinazolines 4, 5, 26, 29, 27, and 30 were selected to be further evaluated for antimicrobial effects. The first assay utilized was a minimal bactericidal concentration (MBC) assay, to assess whether leads compounds were bacteriostatic or bactericidal. The six lead agents were screened to identify their MBC90 towards each of the six A. baumannii isolates used in the SAR studies (Table 8), however for simplicity only the representative data for isolate 1646 is detailed below (Table 6). […] Further to this, we were able to obtain complete eradication of bacterial growth for these two compounds at 1 μM for 24 and 5 μM for 25.
as §1

[15] = tested on: A. baumannii 1650 biofilm; experiment: biofilm eradication determination assay, strain 1650; type: cell-based, Acinetobacter baumannii; conditions: 90% biofilm eradication, Table 8
Method: as §2

[16] = tested on: A. baumannii 1651; experiment: minimal bactericidal concentration (MBC) assay, strain 1651; type: cell-based; conditions: Acinetobacter baumannii, Table 8, read-out: MBC90 1651
Source text: as §3, §1

[17] = tested on: A. baumannii 1649; experiment: minimal bactericidal concentration (MBC) assay, strain 1649; type: cell-based; conditions: Acinetobacter baumannii, Table 8, read-out: MBC90 1649
Source text: as §3, §1

[18] = tested on: A. baumannii 1403; experiment: minimal bactericidal concentration (MBC) assay, strain 1403; type: cell-based; conditions: Acinetobacter baumannii, Table 8, read-out: MBC90 1403
Source text: as §3, §1

[19] = tested on: A. baumannii 1652; experiment: minimal bactericidal concentration (MBC) assay, strain 1652; type: cell-based; conditions: Acinetobacter baumannii, Table 8, read-out: MBC90 1652
Source text: as §3, §1

[20] = tested on: A. baumannii 1646; experiment: minimal bactericidal concentration (MBC) assay, strain 1646; type: cell-based, Acinetobacter baumannii
Source text: as §3, §1

[21] = tested on: A. baumannii 1403 biofilm; experiment: biofilm eradication determination assay, strain 1403; type: cell-based, Acinetobacter baumannii; conditions: 90% biofilm eradication, Table 8
Method: as §2

[22] = Tables 1, 3, 4, 5 and footnotes, read-out: 1651 MIC
[23] = strain 1646, Tables 1, 3, 4, 5 and footnotes, read-out: 1646 MIC
[24] = Tables 1, 3, 4, 5 and footnotes, read-out: 1403 MIC
[25] = Tables 1, 3, 4, 5 and footnotes, read-out: 1649 MIC
[26] = Tables 1, 3, 4, 5 and footnotes, read-out: 1650 MIC
[27] = Tables 1, 3, 4, 5 and footnotes, read-out: 1652 MIC

Structure (SMILES): COc1cc(Cc2cnc(N)nc2N)cc(OC)c1OC [TMP, trimethoprim, reference compound]
- increase in MIC over the 8-day test period [1]: 64 fold
- MIC [2, 22]: 103 µM (≈ 29.9 µg/mL)
- MIC [3, 23]: 34 µM (≈ 9.87 µg/mL)
- MIC [4, 24]: 103 µM (≈ 29.9 µg/mL)
- MIC [5, 25]: 517 µM (≈ 150 µg/mL)
- MIC [6, 26]: 120 µM (≈ 34.8 µg/mL)
- HepG2 cell viability ([7]; human, 48 h, 25 μM): 45%
- MIC [8, 27]: 103 µM (≈ 29.9 µg/mL)

Structure (SMILES): Cc1cc(NS(=O)(=O)c2ccc(N)cc2)no1 [SMX, Sulfamethoxazole, reference compound]
- increase in MIC over the 8-day test period [1]: 128 fold
- MIC [2, 22]: 118 µM (≈ 29.9 µg/mL)
- MIC [3, 23]: 118 µM (≈ 29.9 µg/mL)
- MIC [4, 24]: 138 µM (≈ 35 µg/mL)
- MIC [5, 25]: 118 µM (≈ 29.9 µg/mL)
- MIC [6, 26]: 118 µM (≈ 29.9 µg/mL)
- HepG2 cell viability ([7]; human, 48 h, 25 μM): 46%
- MIC [8, 27]: 118 µM (≈ 29.9 µg/mL)

Structure (SMILES): CNc1nc(NCc2ccccc2)nc2ccc(C3=CCCCC3)cc12 [Compound 29, N^2-Benzyl-6-(cyclohex-1-en-1-yl)-N^4-methylquinazoline-2,4-diamine]
- MIC [9]: 2 µM (≈ 0.689 µg/mL)
- MBEC90 1651 [10]: 21 µM
- MIC [2, 22]: 2 µM (≈ 0.689 µg/mL)
- MIC ([2]; lead quinazolines, Table 8, read-out: MIC 1651): 2 µM (≈ 0.689 µg/mL)
- MIC ([3]; Table 6, representative data for isolate 1646, read-out: MIC): 2 µM (≈ 0.689 µg/mL)
- MIC [3, 23]: 2 µM (≈ 0.689 µg/mL)
- MIC ([3]; strain 1646, lead quinazolines, Table 8, read-out: MIC 1646): 2 µM (≈ 0.689 µg/mL)
- MBEC90 1652 [11]: 77 µM
- MBEC90 1649 [12]: 58 µM
- MBEC90 ([13]; Table 6, representative data for isolate 1646): 8.9 µM
- reduction in biofilm viability ([13]; at 50 μM, strain 1646): 1.6 log
- MBEC90 1646 ([13]; strain 1646, 90% biofilm eradication, Table 8 and text): 8.9 µM
- MBC [14]: 16 µM (≈ 5.51 µg/mL)
- MBEC90 1650 [15]: 48 µM
- MBC [16]: 4 µM (≈ 1.38 µg/mL)
- MIC [4, 24]: 2 µM (≈ 0.689 µg/mL)
- MIC ([4]; lead quinazolines, Table 8, read-out: MIC 1403): 3 µM (≈ 1.03 µg/mL)
- MBC [17]: 9.1 µM (≈ 3.13 µg/mL)
- MIC [5, 25]: 10 µM (≈ 3.44 µg/mL)
- MIC ([5]; lead quinazolines, Table 8, read-out: MIC 1649): 8 µM (≈ 2.76 µg/mL)
- MBC [18]: 22 µM (≈ 7.58 µg/mL)
- MIC [6, 26]: 10 µM (≈ 3.44 µg/mL)
- MIC ([6]; lead quinazolines, Table 8, read-out: MIC 1650): 10 µM (≈ 3.44 µg/mL)
- HepG2 cell viability ([7]; at 12 μM): 42%
- HepG2 cell viability ([7]; at 25 μM (highest concentration tested)): 32%
- LD50(HepG2) ([7]; human, 48 h): 23 µM
- MBC [19]: 11 µM (≈ 3.79 µg/mL)
- MIC [8, 27]: 30 µM (≈ 10.3 µg/mL)
- MIC ([8]; lead quinazolines, Table 8, read-out: MIC 1652): 30 µM (≈ 10.3 µg/mL)
- MBC ([20]; Acinetobacter baumannii, 1646, strain 1646, Table 8 and text, read-out: MBC90 1646): 1.5 µM (≈ 0.517 µg/mL)
- MBC ([20]; Acinetobacter baumannii, Table 6, representative data for isolate 1646, read-out: MBC90): 1.5 µM (≈ 0.517 µg/mL)
- MBEC90 1403 [21]: 20 µM

From patent US10323007B1, “N2N N4-disubstituted quinazoline-2,4-diamines and uses thereof” (University of South Florida, priority 2016, dated 2019)
